The target in the assay is ALK2 (aa 147-end) (Homo sapiens (Human), UniProt Q04771). As to the kind of experiment: ALK2 HTRF Assay. It is filed as biochemical. The following applies: 3 μM ATP, 0.5 nM ALK2, 2 hr, 25° C.; read-out: ALK2 IC50. The protocol: The enzymatic assays were conducted in white 384-well polystyrene plates in a final volume of 8 μL. The inhibitors were serially diluted in DMSO and added to the plate wells prior to addition of the other reaction components. The assays were carried out at 25° C. in the assay buffer (50 mM HEPES, pH 7.0, 10% Glycerol, 0.01% Brij50, 10 mM MgCl2, 1 mM EGTA, 5 mM DTT, and 0.01% BSA), containing 50 nM LANCE Ultra ULight™-DNA Topoisomerase 2-alpha peptide (Perkin Elmer TRF0130), and 3 μM ATP. The final concentration of DMSO in the assay was 1% and the enzyme concentration was 0.5 nM for ALK2. […] […] IC50 determination was performed by fitting percent control activity versus the log of the inhibitor concentration using the IDBS XLFit and GraphPad Prism 5.0 software.
Chain of ALK2 (aa 147-end) (Q04771 147-509): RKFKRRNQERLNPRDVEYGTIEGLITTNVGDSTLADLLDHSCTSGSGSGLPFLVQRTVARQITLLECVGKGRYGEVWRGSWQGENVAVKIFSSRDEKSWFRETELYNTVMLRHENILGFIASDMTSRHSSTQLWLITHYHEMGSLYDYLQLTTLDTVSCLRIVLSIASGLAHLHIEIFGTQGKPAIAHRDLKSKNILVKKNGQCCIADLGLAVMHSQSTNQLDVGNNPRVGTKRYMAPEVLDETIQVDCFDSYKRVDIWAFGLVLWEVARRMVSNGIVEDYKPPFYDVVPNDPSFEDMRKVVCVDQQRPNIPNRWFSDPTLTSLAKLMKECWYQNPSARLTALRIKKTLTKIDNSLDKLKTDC

`CC(=O)N1C[C@@H]2C[C@H]1CN2c1ccc2c(-c3cnc4cc(-c5cnn([C@H]6CC[C@H](O)CC6)c5)c(C)nn34)ccnc2c1` [Example 33, 1-((1S,4S)-5-(4-(7-(1-((1R,4R)-4-hydroxycyclohexyl)-1H-pyrazol-4-yl)-6-methylimidazo[1,2-b]pyridazin-3-yl)quinolin-7-yl)-2,5-diazabicyclo[2.2.1]heptan-2-yl)ethan-1-one]: the IC50 is 5 to 100 nM.

`Cc1cnn(-c2ccc3c(-c4cnc5cc(-c6ccc(CN7CC[C@](C)(O)C7)cc6)c(C)nn45)ccnc3n2)n1` [Example 66, (S)-3-methyl-1-(4-(6-methyl-3-(7-(4-methyl-2H-1,2,3-triazol-2-yl)-1,8-naphthyridin-4-yl)imidazo[1,2-b]pyridazin-7-yl)benzyl)pyrrolidin-3-ol]: the half-maximal inhibitory concentration (IC50) was below 1 nM.

As for `Cc1nn2c(-c3ccnc4ncccc34)cnc2cc1-c1ccc(N2CCNCC2)cc1` [Example 27, 4-(6-methyl-7-(4-(piperazin-1-yl)phenyl)imidazo[1,2-b]pyridazin-3-yl)-1,8-naphthyridine], the 50% inhibitory concentration (IC50) is below 1 nM.

Regarding `CCn1cnc(-c2ccc3c(-c4cnc5cc(-c6ccc(CN7CCC(O)CC7)cc6)c(C)nn45)ccnc3n2)c1` [Example 71, 1-(4-(3-(7-(1-Ethyl-1H-imidazol-4-yl)-1,8-naphthyridin-4-yl)-6-methylimidazo[1,2-b]pyridazin-7-yl)benzyl)piperidin-4-ol], the IC50 was 1 to 5 nM.

As to `Cc1cc(-c2ccc3c(-c4cnc5cc(-c6ccc(CN7CCC7)cc6)c(C)nn45)ccnc3n2)n[nH]1` [Example 48, 5-(7-(4-(Azetidin-1-ylmethyl)phenyl)-6-methylimidazo[1,2-b]pyridazin-3-yl)-2-(5-methyl-1H-pyrazol-3-yl)-1,8-naphthyridine], the 50% inhibitory concentration (IC50) is below 1 nM.

For `Cc1nn2c(-c3ccnc4c(C(=O)NCCO)cccc34)cnc2cc1-c1ccc(N2CCNCC2)cc1` [Example 31, N-(2-hydroxyethyl)-4-(6-methyl-7-(4-(piperazin-1-yl)phenyl)imidazo[1,2-b]pyridazin-3-yl)quinoline-8-carboxamide], the IC50 was above 100 nM.

Take `Cc1cc(-c2ccc3c(-c4cnc5cc(-c6cnn(C(C)C)c6)c(C)nn45)ccnc3n2)n[nH]1` [Example 50, 5-(7-(1-Isopropyl-1H-pyrazol-4-yl)-6-methylimidazo[1,2-b]pyridazin-3-yl)-2-(5-methyl-1H-pyrazol-3-yl)-1,8-naphthyridine]: the 50% inhibitory concentration (IC50) was below 1 nM.

For `Cc1nn2c(-c3ccnc4cc(-c5ccn(C)n5)ccc34)cnc2cc1-c1ccc(N2CCNCC2)cc1` [Example 18, 7-(1-methyl-1H-pyrazol-3-yl)-4-(6-methyl-7-(4-(piperazin-1-yl)phenyl)imidazo[1,2-b]pyridazin-3-yl)quinoline], the 50% inhibitory concentration (IC50) lay within 1 to 5 nM.

As to `Cc1nn2c(-c3ccnc4nc(-c5ccn(C)n5)ccc34)cnc2cc1-c1ccc(CN2CCC2)cc1` [Example 46, 5-(7-(4-(Azetidin-1-ylmethyl)phenyl)-6-methylimidazo[1,2-b]pyridazin-3-yl)-2-(1-methyl-1H-pyrazol-3-yl)-1,8-naphthyridine], the 50% inhibitory concentration (IC50) fell in the range of 5 to 100 nM.

Consider `Cc1cc(-c2ccc3c(-c4cnc5cc(-c6ccc(CN7CCOCC7)cc6)c(C)nn45)ccnc3n2)n[nH]1` [Example 49, 4-(4-(6-methyl-3-(7-(5-methyl-1H-pyrazol-3-yl)-1,8-naphthyridin-4-yl)imidazo[1,2-b]pyridazin-7-yl)benzyl)morpholine], for which the IC50 is below 1 nM.

Regarding `Cc1nn2c(-c3ccnc4cc(-c5ccncc5)ccc34)cnc2cc1-c1cnn([C@H]2CC[C@H](O)CC2)c1` [Example 10, (trans)-4-(4-(6-Methyl-3-(7-(pyridin-4-yl)quinolin-4-yl)imidazo[1,2-b]pyridazin-7-yl)-1H-pyrazol-1-yl)cyclohexan-1-ol], the IC50 was 1 to 5 nM.

As for `Cc1nn2c(-c3ccnc4nc(-c5cnccn5)ccc34)cnc2cc1-c1cnn([C@H]2CC[C@H](O)CC2)c1` [Example 41, (1R,4R)-4-(4-(6-Methyl-3-(7-(pyrazin-2-yl)-1,8-naphthyridin-4-yl)imidazo[1,2-b]pyridazin-7-yl)-1H-pyrazol-1-yl)cyclohexan-1-ol], the IC50 was in the range of 1 to 5 nM.

In the case of `Cc1nn2c(-c3ccnc4nc(-c5ccn(C)n5)ccc34)cnc2cc1-c1ccc(C(=O)N(C)C)cc1` [Example 47, N,N-dimethyl-4-(6-methyl-3-(7-(1-methyl-1H-pyrazol-3-yl)-1,8-naphthyridin-4-yl)imidazo[1,2-b]pyridazin-7-yl)benzamide], the half-maximal inhibitory concentration (IC50) lay in the range of 1 to 5 nM.

For the compound `CCn1cnc(-c2ccc3c(-c4cnc5cc(-c6cnn(C(C)C)c6)c(C)nn45)ccnc3n2)c1` [Example 55, 2-(1-Ethyl-1H-imidazol-4-yl)-5-(7-(1-isopropyl-1H-pyrazol-4-yl)-6-methylimidazo[1,2-b]pyridazin-3-yl)-1,8-naphthyridine], the IC50 lay in the range of 1 to 5 nM.

Turning to `Cc1cnn(-c2ccc3c(-c4cnc5cc(-c6cnn(C7CCOCC7)c6)c(C)nn45)ccnc3n2)n1` [Example 62, 2-(4-Methyl-2H-1,2,3-triazol-2-yl)-5-(6-methyl-7-(1-(tetrahydro-2H-pyran-4-yl)-1H-pyrazol-4-yl)imidazo[1,2-b]pyridazin-3-yl)-1,8-naphthyridine], the IC50 is below 1 nM.

As for `Cc1cnn(-c2ccc3c(-c4cnc5cc(-c6ccc(CN7CCC(C)(O)CC7)cc6)c(C)nn45)ccnc3n2)n1` [Example 68, 4-methyl-1-(4-(6-methyl-3-(7-(4-methyl-2H-1,2,3-triazol-2-yl)-1,8-naphthyridin-4-yl)imidazo[1,2-b]pyridazin-7-yl)benzyl)piperidin-4-ol], the IC50 was below 1 nM.

For `CNC(=O)c1ccc2c(-c3cnc4cc(-c5ccc(N6CCNCC6)cc5)c(C)nn34)ccnc2c1` [Example 16, N-methyl-4-(6-methyl-7-(4-(piperazin-1-yl)phenyl)imidazo[1,2-b]pyridazin-3-yl)quinoline-7-carboxamide], the IC50 lay within 1 to 5 nM.

`Cc1nn2c(-c3ccnc4cc(N5CC6(CCOC6)C5)ccc34)cnc2cc1-c1ccc(N2CCNCC2)cc1` [Example 21, 2-(4-(6-methyl-7-(4-(piperazin-1-yl)phenyl)imidazo[1,2-b]pyridazin-3-yl)quinolin-7-yl)-6-oxa-2-azaspiro[3.4]octane]: the half-maximal inhibitory concentration (IC50) was in the range of 5 to 100 nM.

For `Cc1nn2c(-c3ccnc4nc(-c5ccccn5)ccc34)cnc2cc1-c1ccc(CN2CCC2)cc1` [Example 38, 5-(7-(4-(Azetidin-1-ylmethyl)phenyl)-6-methylimidazo[1,2-b]pyridazin-3-yl)-2-(pyridin-2-yl)-1,8-naphthyridine], the IC50 was below 1 nM.

With `Cc1cnn(-c2ccc3c(-c4cnc5cc(-c6ccc(CN7CCCC7)cc6)c(C)nn45)ccnc3n2)n1` [Example 60, 2-(4-Methyl-2H-1,2,3-triazol-2-yl)-5-(6-methyl-7-(4-(pyrrolidin-1-ylmethyl)phenyl)imidazo[1,2-b]pyridazin-3-yl)-1,8-naphthyridine], the IC50 was 1 to 5 nM.

For the compound `Cc1cnn(-c2ccc3c(-c4cnc5cc(-c6ccc(CN7CCN(C)CC7)cc6)c(C)nn45)ccnc3n2)n1` [Example 70, 2-(4-methyl-2H-1,2,3-triazol-2-yl)-5-(6-methyl-7-(4-((4-methylpiperazin-1-yl)methyl)phenyl)imidazo[1,2-b]pyridazin-3-yl)-1,8-naphthyridine], the half-maximal inhibitory concentration (IC50) fell in the range of 1 to 5 nM.

Source of the values: US11459329B2, “Imidazopyridazine and imidazopyridine compounds and uses thereof” (Incyte Corporation, priority 2018, dated 2022).
